For data set [1], the system named is H3K27 trimethylation over the SMN2 gene. Description: ChIP-qPCR of H3K27 trimethylation over the SMN2 gene in HEK293T cells. The data set is classed as cell-based, human. The conditions noted are these: ASO1 transfection. As for the experimental part:
FIGS. 10A-10D show control experiments for the opposing roles of ASO1 on chromatin and splicing. […] Top: control Western blot for efficient expression of the c-Myc-SMN fusion protein encoded by plasmid pcDNA3.1+SMN1mycHIS (Addgene, cat.# 71687) using anti-tubulin (tub.) as loading control. Bottom: SMN2 E7 RT-PCR of cells co-transfected with ASO1 and plasmid. […] Distribution of these histone marks was assessed by ChIP-qPCR, with amplicons mapping near the numbered exons (E) and introns (i). Three independent immunoprecipitation replicates were conducted per experiment. Data are represented as mean ± S.D. (n = 5; in all cases p was much higher than 0.05, two-tailed Student’s t test). […] Top: control Western blot for efficient expression of the GFPRNaseH fusion protein encoded by plasmid pEGFP-RNASEH1 (Addgene, cat.# 108699), using anti-actin (act.) as loading control. Bottom: SMN2 E7 RT-PCR of cells co-transfected with ASO1 and the RNase H plasmid. […] Top: control Western blot for efficient AGO1 knockdown using anti-tubulin (tub.) as loading control. […]
Approximately 2×10^6 HEK293T cells per sample were treated for 10 min in 1% (v/v) formaldehyde at room temperature to crosslink protein-DNA complexes. […] Immunoprecipitated DNA (1.5 µl) and serial dilutions of the 10% input DNA (1:4, 1:20, 1: 100, and 1:500) were analyzed by SYBR-Green real-time qPCR.
(Quantitative PCR measures a nucleic acid by following its amplification.)

The test system of data set [2] is H3K9me2 along the human SMN2 transgene. In words: ChIP-qPCR of H3K9me2 along the human SMN2 transgene in brain and liver of P7 SMA mice. Particulars: P7 SMA mice injected with ASO1. The data set is classed as in vivo, mouse. As for the experimental part:
H3K9me2 (left) and total RNAPII (right) distribution along the human SMN2 transgene, assessed by ChIP-qPCR, in brain (FIG. 12A) and liver (FIG. 12B) of P7 SMA mice injected with ASO1. Vertical arrows indicate the approximate location of the target site for ASO1 on the pre-mRNA. Three independent immunoprecipitation replicates were conducted per experiment. Data are represented as mean ± S.D. (n = 3, *p < 0.05, two-tailed Student’s t test).
Approximately 2×10^6 HEK293T cells per sample were treated for 10 min in 1% (v/v) formaldehyde at room temperature to crosslink protein-DNA complexes. Crosslinking was stopped with glycine at a final concentration of 125 mM. Cells were washed twice with cold PBS and swelled on ice for 10 min in 25 mM HEPES pH 8, 1.5 mM MgCl2, 10 mM KCl, 0.1% NP-40, 1 mM DTT and 1× protease inhibitor cocktail set III (Calbiochem). Following Dounce homogenization, the nuclei were collected and resuspended in 1 ml sonication buffer (50 mM HEPES pH 8, 140 mM NaCl, 1 mM EDTA, 0.1% sodium deoxycholate, 0.1% SDS and 1× protease inhibitor cocktail). DNA was sonicated in an ultrasonic bath (Bioruptor Diagenode) to an average length of 200-500 bp. After addition of 1% (v/v) Triton X-100, samples were centrifuged at 15,000 ×g. […] Immunoprecipitated DNA (1.5 µl) and serial dilutions of the 10% input DNA (1:4, 1:20, 1: 100, and 1:500) were analyzed by SYBR-Green real-time qPCR.

In a further data set the test system is SMN2 pre-mRNA. Description: Transcriptional activation by RT-qPCR of SMN2 pre-mRNA in HEK293T cells. The data set is classed as cell-based, human. The conditions noted are these: HDAC inhibitor alone.

Oligonucleotides are written 5' to 3', each unit as a sugar letter and its base; * is a phosphorothioate linkage, no mark a phosphodiester; rarer units and linkages stand in square brackets, end groups in braces. Plain capitals give the bases only. e = 2'-O-(2-methoxyethyl) (MOE); [5mC] = 5-methylcytosine

Experimental for SMN2 pre-mRNA: (FIG. 5D and FIG. 5E) Transcriptional activation was assessed by RT-qPCR. (FIG. 5F) HEK293T cells with 3 nM ASO1 and 10 mM VPA for 24 hr. Bars indicate mean transcriptional activation ± SD ratios between precursors of SMN2 and GAPDH as the control gene. Statistical significance was analyzed by two-tailed Student’s t-tests. P < 0.05 was considered statistically significant.
HEK293T, HeLa, and SMA type I homozygous and carrier fibroblasts 3813 and 3814 (Coriell Cell Repositories, Camden, New Jersey, United States) were grown in Dulbecco’s modified Eagle’s medium (DMEM) containing 4.5 g of glucose and 10% fetal bovine serum (Gibco) at 37° C. Cells were plated at a density of 2×10^5 cells per well in 12-well plates 24 hr before transfection. siRNA (25 nM), plasmid (500 ng), or ASO (25 nM) transfections were performed 24 hr after cells were plated, using 3 µl of Lipofectamine 2000 (Thermo Fisher Scientific) per well in 12-well plates. 24-48 h later, cells were treated with Trichostatin A (Sigma, T8552), Valproic Acid (Sigma, P4543), 5-Azacytidine (Sigma, A2385) or vehicle for the indicated time, and harvested for downstream procedures.

Take “ASO1: 5′-ATTCACTTTCATAATGCTGG-3′ 2′-O-methoxyethyl-modified oligonucleotide with phosphorothioate backbone and all 5-methyl cytosines; nusinersen variant with 2-nucleotide extension (antisense eA*eT*eT*e[5mC]*eA*e[5mC]*eT*eT*eT*e[5mC]*eA*eT*eA*eA*eT*eG*e[5mC]*eT*eG*eG)”: the “H3K27 trimethylation over the SMN2 gene” value in data set [1] is recorded as “not affected”. The “H3K9 dimethylation on the SMN2 transgene in liver and brain” value in data set [2] was “higher H3K9 dimethylation”.
For `CCCC(CCC)C(=O)O` [VPA, valproic acid], the “levels of SMN2 pre-mRNA (promoter-proximal amplicon)” value in the data set on SMN2 pre-mRNA is “increased the levels of SMN2 pre-mRNA”.

Source of the values: patent publication US20230302036A1, “COMPOSITIONS FOR TREATMENT OF SPINAL MUSCULAR ATROPHY” (priority 2020, published 2023).
